Experimental data taken from the supplement of paper PMC9663587.

Experiments:
SHP099 = compound: CC1(CCN(CC1)C2=CN=C(C(=N2)N)C3=C(C(=CC=C3)Cl)Cl)N [SHP099]
Vorinostat = compound: O=C(CCCCCCC(=O)Nc1ccccc1)NO [Vorinostat]
[1] = compound: CCN1CCN(Cc2ccc(Nc3ncc(F)c(-c4cc(F)c5nc(C)n(C(C)C)c5c4)n3)nc2)CC1
[2] = compound: CCc1cnn2c(NCc3ccc[n+]([O-])c3)cc(N3CCCC[C@H]3CCO)nc12
Paclitaxel = compound: CC(=O)O[C@H]1C(=O)[C@@]2(C)[C@H]([C@H](OC(=O)c3ccccc3)[C@]3(O)C[C@H](OC(=O)[C@H](O)[C@@H](NC(=O)c4ccccc4)c4ccccc4)C(C)=C1C3(C)C)[C@]1(OC(C)=O)CO[C@@H]1C[C@@H]2O [Paclitaxel]
BSJ-03-123 = compound: CC(=O)c1c(C)c2cnc(Nc3ccc(N4CCN(CCOCCOCCOCCNC(=O)COc5cccc6c5C(=O)N(C5CCC(=O)NC5=O)C6=O)CC4)cn3)nc2n(C2CCCC2)c1=O [BSJ-03-123]
Buparlisib/NVP-BKM120 = compound: Nc1cc(C(F)(F)F)c(-c2cc(N3CCOCC3)nc(N3CCOCC3)n2)cn1 [Buparlisib/NVP-BKM120]
AZD5363 = compound: NC1(C(=O)N[C@@H](CCO)c2ccc(Cl)cc2)CCN(c2nc[nH]c3nccc2-3)CC1 [AZD5363]
Cabozantinib = compound: COc1cc2nccc(Oc3ccc(NC(=O)C4(C(=O)Nc5ccc(F)cc5)CC4)cc3)c2cc1OC [Cabozantinib]
[3] = compound: CC(=O)c1c(C)c2cnc(Nc3ccc(N4CCNCC4)cn3)nc2n(C2CCCC2)c1=O; assay: GR value, 72 h; higher = faster growth (1 = untreated, <0 = killing);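 also: breast cancer and non-malignant breast epithelial lines, nine half-log doses, viable cells counted by Hoechst and LIVE/DEAD dye imaging versus time-zero plates and DMSO controls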
Flavopiridol = compound: CN1CC[C@H](c2c(O)cc(O)c3c(=O)cc(-c4ccccc4Cl)oc23)[C@H](O)C1 [Flavopiridol]; assay: as above
[4] = compound: CCN1CCN(Cc2ccc(Nc3ncc(F)c(-c4cc(F)c5nc(C)n(C(C)C)c5c4)n3)nc2)CC1; assay: as above
THZ531 = compound: CN(C)C/C=C/C(=O)Nc1ccc(C(=O)N2CCC[C@@H](Nc3ncc(Cl)c(-c4c[nH]c5ccccc45)n3)C2)cc1 [THZ531]; assay: as above
YKL-5-124 = compound: C=CC(=O)Nc1ccc(C(=O)Nc2[nH]nc3c2CN(C(=O)N[C@H](CN(C)C)c2ccccc2)C3(C)C)cc1 [YKL-5-124]; assay: as above
THZ1 = compound: CN(C)C/C=C/C(=O)Nc1ccc(C(=O)Nc2cccc(Nc3ncc(Cl)c(-c4c[nH]c5ccccc45)n3)c2)cc1 [THZ1]; assay: as above
[5] = compound: CCc1cnn2c(NCc3ccc[n+]([O-])c3)cc(N3CCCC[C@H]3CCO)nc12; assay: as above
LEE011/Ribociclib = compound: CN(C)C(=O)c1cc2cnc(Nc3ccc(N4CCNCC4)cn3)nc2n1C1CCCC1 [LEE011/Ribociclib]; assay: as above
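For GR50, 72 h in this document: breast cancer and non-malignant breast epithelial cell lines, Deep Dye Drop or Dye Drop imaging, nine half-log doses, GR normalized to time-zero plates and DMSO-only controls.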

## PDXHCI002
SHP099
  GR50, 72 h: > 10 µM
Vorinostat
  GR50, 72 h: 0.282 µM
[1]
  GR50, 72 h: 0.0484 µM
[2]
  GR50, 72 h: 0.0122 µM
Paclitaxel
  GR50, 72 h: 0.00249 µM
BSJ-03-123
  GR50, 72 h: 1.64 µM
Buparlisib/NVP-BKM120
  GR50, 72 h: 1.44 µM
AZD5363
  GR50, 72 h: > 10 µM
Cabozantinib
  GR50, 72 h: 7.21 µM
[3]; 0.0003162 µM
  GR value: 1.09 GR
[3]; 0.001 µM
  GR value: 1.09 GR
[3]; 0.003162 µM
  GR value: 1.02 GR
[3]; 0.01 µM
  GR value: 0.946 GR
[3]; 0.03162 µM
  GR value: 0.723 GR
[3]; 0.1 µM
  GR value: 0.552 GR
[3]; 0.3162 µM
  GR value: 0.427 GR
[3]; 1 µM
  GR value: 0.374 GR
[3]; 3.162 µM
  GR value: 0.274 GR
Flavopiridol; 0.0001 µM
  GR value: 1.02 GR
Flavopiridol; 0.0003162 µM
  GR value: 0.997 GR
Flavopiridol; 0.001 µM
  GR value: 0.973 GR
Flavopiridol; 0.003162 µM
  GR value: 0.997 GR
Flavopiridol; 0.01 µM
  GR value: 0.999 GR
Flavopiridol; 0.03162 µM
  GR value: 0.817 GR
Flavopiridol; 0.1 µM
  GR value: 0.63 GR
Flavopiridol; 0.3162 µM
  GR value: -0.0265 GR
Flavopiridol; 1 µM
  GR value: -0.156 GR
[4]; 0.001 µM
  GR value: 1.08 GR
[4]; 0.003162 µM
  GR value: 1 GR
[4]; 0.01 µM
  GR value: 0.785 GR
[4]; 0.03162 µM
  GR value: 0.527 GR
[4]; 0.1 µM
  GR value: 0.24 GR
[4]; 0.3162 µM
  GR value: 0.0121 GR
[4]; 1 µM
  GR value: -0.312 GR
[4]; 3.162 µM
  GR value: -0.593 GR
[4]; 10 µM
  GR value: -0.688 GR
THZ531; 0.0001 µM
  GR value: 1.1 GR
THZ531; 0.0003162 µM
  GR value: 1.06 GR
THZ531; 0.001 µM
  GR value: 0.966 GR
THZ531; 0.003162 µM
  GR value: 1.06 GR
THZ531; 0.01 µM
  GR value: 0.958 GR
THZ531; 0.03162 µM
  GR value: 0.782 GR
THZ531; 0.1 µM
  GR value: 0.0491 GR
THZ531; 0.3162 µM
  GR value: -0.122 GR
THZ531; 1 µM
  GR value: -0.198 GR
YKL-5-124; 0.001 µM
  GR value: 0.288 GR
YKL-5-124; 0.003162 µM
  GR value: 0.306 GR
YKL-5-124; 0.01 µM
  GR value: 0.168 GR
YKL-5-124; 0.03162 µM
  GR value: 0.196 GR
YKL-5-124; 0.1 µM
  GR value: 0.158 GR
YKL-5-124; 0.3162 µM
  GR value: 0.0899 GR
YKL-5-124; 1 µM
  GR value: 0.0177 GR
YKL-5-124; 3.162 µM
  GR value: 0.0442 GR
YKL-5-124; 10 µM
  GR value: -0.129 GR
THZ1; 0.0001 µM
  GR value: 1.05 GR
THZ1; 0.0003162 µM
  GR value: 1.01 GR
THZ1; 0.001 µM
  GR value: 1.02 GR
THZ1; 0.003162 µM
  GR value: 0.984 GR
THZ1; 0.01 µM
  GR value: 0.541 GR
THZ1; 0.03162 µM
  GR value: -0.0195 GR
THZ1; 0.1 µM
  GR value: -0.163 GR
THZ1; 0.3162 µM
  GR value: -0.148 GR
THZ1; 1 µM
  GR value: -0.193 GR
[5]; 0.0001 µM
  GR value: 1.11 GR
[5]; 0.0003162 µM
  GR value: 1.1 GR
[5]; 0.001 µM
  GR value: 1.11 GR
[5]; 0.003162 µM
  GR value: 1.05 GR
[5]; 0.01 µM
  GR value: 0.744 GR
[5]; 0.03162 µM
  GR value: -0.331 GR
[5]; 0.1 µM
  GR value: -0.387 GR
[5]; 0.3162 µM
  GR value: -0.343 GR
[5]; 1 µM
  GR value: -0.365 GR
LEE011/Ribociclib; 0.001 µM
  GR value: 1.04 GR
LEE011/Ribociclib; 0.003162 µM
  GR value: 1 GR
LEE011/Ribociclib; 0.01 µM
  GR value: 0.903 GR
LEE011/Ribociclib; 0.03162 µM
  GR value: 0.925 GR
LEE011/Ribociclib; 0.1 µM
  GR value: 0.882 GR
LEE011/Ribociclib; 0.3162 µM
  GR value: 0.862 GR
LEE011/Ribociclib; 1 µM
  GR value: 0.828 GR
LEE011/Ribociclib; 3.162 µM
  GR value: 0.766 GR
LEE011/Ribociclib; 10 µM
  GR value: 0.51 GR

## SKBR3
SHP099
  GR50, 72 h: > 10 µM
Vorinostat
  GR50, 72 h: 0.767 µM
[1]
  GR50, 72 h: 0.0353 µM
[2]
  GR50, 72 h: 0.00682 µM
Paclitaxel
  GR50, 72 h: 0.00191 µM
BSJ-03-123
  GR50, 72 h: 1.02 µM
Buparlisib/NVP-BKM120
  GR50, 72 h: 0.14 µM
AZD5363
  GR50, 72 h: 2.76 µM
Cabozantinib
  GR50, 72 h: 9.69 µM
[3]; 0.0003162 µM
  GR value: 1.05 GR
[3]; 0.001 µM
  GR value: 1.03 GR
[3]; 0.003162 µM
  GR value: 0.946 GR
[3]; 0.01 µM
  GR value: 0.845 GR
[3]; 0.03162 µM
  GR value: 0.697 GR
[3]; 0.1 µM
  GR value: 0.591 GR
[3]; 0.3162 µM
  GR value: 0.434 GR
[3]; 1 µM
  GR value: 0.48 GR
[3]; 3.162 µM
  GR value: 0.334 GR
Flavopiridol; 0.0001 µM
  GR value: 1.04 GR
Flavopiridol; 0.0003162 µM
  GR value: 0.989 GR
Flavopiridol; 0.001 µM
  GR value: 0.844 GR
Flavopiridol; 0.003162 µM
  GR value: 0.823 GR
Flavopiridol; 0.01 µM
  GR value: 0.823 GR
Flavopiridol; 0.03162 µM
  GR value: 0.9 GR
Flavopiridol; 0.1 µM
  GR value: 0.641 GR
Flavopiridol; 0.3162 µM
  GR value: -0.0615 GR
Flavopiridol; 1 µM
  GR value: -0.656 GR
[4]; 0.001 µM
  GR value: 0.874 GR
[4]; 0.003162 µM
  GR value: 0.866 GR
[4]; 0.01 µM
  GR value: 0.623 GR
[4]; 0.03162 µM
  GR value: 0.491 GR
[4]; 0.1 µM
  GR value: 0.402 GR
[4]; 0.3162 µM
  GR value: 0.337 GR
[4]; 1 µM
  GR value: 0.24 GR
[4]; 3.162 µM
  GR value: 0.27 GR
[4]; 10 µM
  GR value: 0.151 GR
THZ531; 0.0001 µM
  GR value: 1.03 GR
THZ531; 0.0003162 µM
  GR value: 0.963 GR
THZ531; 0.001 µM
  GR value: 0.975 GR
THZ531; 0.003162 µM
  GR value: 0.961 GR
THZ531; 0.01 µM
  GR value: 1.07 GR
THZ531; 0.03162 µM
  GR value: 0.411 GR
THZ531; 0.1 µM
  GR value: -0.26 GR
THZ531; 0.3162 µM
  GR value: -0.481 GR
THZ531; 1 µM
  GR value: -0.584 GR
YKL-5-124; 0.001 µM
  GR value: 0.455 GR
YKL-5-124; 0.003162 µM
  GR value: 0.198 GR
YKL-5-124; 0.01 µM
  GR value: 0.164 GR
YKL-5-124; 0.03162 µM
  GR value: 0.137 GR
YKL-5-124; 0.1 µM
  GR value: 0.102 GR
YKL-5-124; 0.3162 µM
  GR value: -0.123 GR
YKL-5-124; 1 µM
  GR value: 0.0239 GR
YKL-5-124; 3.162 µM
  GR value: -0.0117 GR
YKL-5-124; 10 µM
  GR value: -0.572 GR
THZ1; 0.0001 µM
  GR value: 1.08 GR
THZ1; 0.0003162 µM
  GR value: 1.06 GR
THZ1; 0.001 µM
  GR value: 0.867 GR
THZ1; 0.003162 µM
  GR value: 0.854 GR
THZ1; 0.01 µM
  GR value: 0.743 GR
THZ1; 0.03162 µM
  GR value: 0.0057 GR
THZ1; 0.1 µM
  GR value: -0.515 GR
THZ1; 0.3162 µM
  GR value: -0.579 GR
THZ1; 1 µM
  GR value: -0.789 GR
[5]; 0.0001 µM
  GR value: 0.95 GR
[5]; 0.0003162 µM
  GR value: 0.921 GR
[5]; 0.001 µM
  GR value: 1.07 GR
[5]; 0.003162 µM
  GR value: 0.933 GR
[5]; 0.01 µM
  GR value: 0.0102 GR
[5]; 0.03162 µM
  GR value: -0.581 GR
[5]; 0.1 µM
  GR value: -0.6 GR
[5]; 0.3162 µM
  GR value: -0.628 GR
[5]; 1 µM
  GR value: -0.579 GR
LEE011/Ribociclib; 0.001 µM
  GR value: 0.897 GR
LEE011/Ribociclib; 0.003162 µM
  GR value: 0.728 GR
LEE011/Ribociclib; 0.01 µM
  GR value: 0.774 GR
LEE011/Ribociclib; 0.03162 µM
  GR value: 0.766 GR
LEE011/Ribociclib; 0.1 µM
  GR value: 0.776 GR
LEE011/Ribociclib; 0.3162 µM
  GR value: 0.471 GR
LEE011/Ribociclib; 1 µM
  GR value: 0.582 GR
LEE011/Ribociclib; 3.162 µM
  GR value: 0.429 GR
LEE011/Ribociclib; 10 µM
  GR value: 0.586 GR
